{"source": "paper PMC9137512", "about": "(Antibiotics, 2022)", "assay": "Free concentration and protein binding in spiked human serum samples (Table S5)", "details": "for fraction unbound: human, serum, PB", "protocol": "Subsequently, samples were mixed for 10 s, stored in an ultrasonic bath for 10 min at 40 °C, then centrifuged at 8000× g for 5 min. Next, 100 µL of the resulting supernatant was further diluted with 500 µL water with 0.1% formic acid. […] Details are described in the Supplementary Materials (Figures S1–S3).\nTable S5. […] In order to evaluate the\n(a) Spiked human serum samples of 14 patients (8 critically ill and 6 non-critically ill) after calibration with sheep serum.\n(b) Spiked human serum samples of 9 critically ill patients and 6 healthy volunteers after calibration with human serum.", "key": {"[1]": {"details": "S5b, serum of 28 (healthy volunteer) spiked 50 mg/L, measured c 49.1 mg/L, calibration with human serum"}, "[2]": {"details": "S5b, serum of 28 (healthy volunteer) spiked 200 mg/L, measured c 199 mg/L, calibration with human serum"}, "[3]": {"details": "S5b, serum of 29 (healthy volunteer) spiked 50 mg/L, measured c 52.0 mg/L, calibration with human serum"}, "[4]": {"details": "S5b, serum of 29 (healthy volunteer) spiked 200 mg/L, measured c 207 mg/L, calibration with human serum"}, "[5]": {"details": "S5b, serum of patient 16 (critically ill) spiked 50 mg/L, measured c 56.7 mg/L, calibration with human serum"}, "[6]": {"details": "S5b, serum of patient 17 (critically ill) spiked 200 mg/L, measured c 222 mg/L, calibration with human serum"}, "[7]": {"details": "S5b, serum of patient 18 (critically ill) spiked 50 mg/L, measured c 57.6 mg/L, calibration with human serum"}, "[8]": {"details": "S5b, serum of patient 18 (critically ill) spiked 200 mg/L, measured c 242 mg/L, calibration with human serum"}, "[9]": {"details": "S5b, serum of patient 19 (critically ill) spiked 50 mg/L, measured c 51.1 mg/L, calibration with human serum"}, "[10]": {"details": "S5b, serum of patient 19 (critically ill) spiked 200 mg/L, measured c 197 mg/L, calibration with human serum"}, "[11]": {"details": "S5b, serum of patient 20 (critically ill) spiked 50 mg/L, measured c 54.5 mg/L, calibration with human serum"}, "[12]": {"details": "S5b, serum of patient 20 (critically ill) spiked 200 mg/L, measured c 254 mg/L, calibration with human serum"}, "[13]": {"details": "S5b, serum of patient 21 (critically ill) spiked 50 mg/L, measured c 55.2 mg/L, calibration with human serum"}, "[14]": {"details": "S5b, serum of patient 23 (critically ill) spiked 50 mg/L, measured c 56.0 mg/L, calibration with human serum"}}}
{"smiles": "CN[C@H]1C(=O)N[C@@H]2Cc3ccc(cc3)Oc3cc4cc(c3O[C@@H]3O[C@H](C(=O)O)[C@@H](O)[C@H](O)[C@H]3NC(=O)CCCCCCCCC(C)C)Oc3ccc(cc3Cl)[C@@H](O)[C@@H]3NC(=O)[C@H](NC(=O)[C@@H]4NC(=O)[C@@H](NC2=O)c2cc(cc(O)c2Cl)Oc2cc1ccc2O)c1ccc(O)c(c1)-c1c(O[C@H]2O[C@H](CO)[C@@H](O)[C@H](O)[C@@H]2O)cc(O)cc1[C@@H](C(=O)NCCCN(C)C)NC3=O", "note": "[dalbavancin, Dalbavancin]", "values": [{"measurement": "fc", "setting": "S5b, serum of 27 (healthy volunteer) spiked 200 mg/L, measured c 220 mg/L, calibration with human serum", "value": 5.1, "unit": "mg/L"}, {"measurement": "PB", "setting": "[1]", "value": 97, "unit": "%"}, {"measurement": "fc", "setting": "[1]", "value": 1.6, "unit": "mg/L"}, {"measurement": "PB", "setting": "[2]", "value": 98, "unit": "%"}, {"measurement": "fc", "setting": "[2]", "value": 4.8, "unit": "mg/L"}, {"measurement": "PB", "setting": "[3]", "value": 97, "unit": "%"}, {"measurement": "fc", "setting": "[3]", "value": 1.4, "unit": "mg/L"}, {"measurement": "PB", "setting": "[4]", "value": 98, "unit": "%"}, {"measurement": "fc", "setting": "[4]", "value": 4.6, "unit": "mg/L"}, {"measurement": "fc", "setting": "S5b, serum of patient 15 (critically ill) spiked 50 mg/L, measured c 56.7 mg/L, Nanosep SPE, HPLC-UV, calibration with human serum", "value": 1.9, "unit": "mg/L"}, {"measurement": "fc", "setting": "S5b, serum of patient 15 (critically ill) spiked 200 mg/L, measured c 239 mg/L, calibration with human serum", "value": 9.8, "unit": "mg/L"}, {"measurement": "fc", "setting": "[5]", "value": 1.8, "unit": "mg/L"}, {"measurement": "fc", "setting": "S5b, serum of patient 16 (critically ill) spiked 200 mg/L, measured c 233 mg/L, calibration with human serum", "value": 12.1, "unit": "mg/L"}, {"measurement": "fc", "setting": "S5b, serum of patient 17 (critically ill) spiked 50 mg/L, measured c 52.5 mg/L, calibration with human serum", "value": "< 1.0", "unit": "mg/L"}, {"measurement": "fc", "setting": "[6]", "value": 8.3, "unit": "mg/L"}, {"measurement": "fc", "setting": "[7]", "value": 1.3, "unit": "mg/L"}, {"measurement": "fc", "setting": "[8]", "value": 8.8, "unit": "mg/L"}, {"measurement": "fc", "setting": "[9]", "value": 1.2, "unit": "mg/L"}, {"measurement": "fc", "setting": "[10]", "value": 7.1, "unit": "mg/L"}, {"measurement": "fc", "setting": "[11]", "value": 1.7, "unit": "mg/L"}, {"measurement": "fc", "setting": "[12]", "value": 8.2, "unit": "mg/L"}, {"measurement": "fc", "setting": "[13]", "value": 1.6, "unit": "mg/L"}, {"measurement": "fc", "setting": "S5b, serum of patient 21 (critically ill) spiked 200 mg/L, measured c 230 mg/L, calibration with human serum", "value": 11.0, "unit": "mg/L"}, {"measurement": "fc", "setting": "S5b, serum of patient 22 (critically ill) spiked 50 mg/L, measured c 59.8 mg/L, calibration with human serum", "value": 2.5, "unit": "mg/L"}, {"measurement": "fc", "setting": "S5b, serum of patient 22 (critically ill) spiked 200 mg/L, measured c 266 mg/L, calibration with human serum", "value": 16.5, "unit": "mg/L"}, {"measurement": "fc", "setting": "[14]", "value": 2.2, "unit": "mg/L"}, {"measurement": "fc", "setting": "S5b, serum of patient 23 (critically ill) spiked 200 mg/L, measured c 233 mg/L, calibration with human serum", "value": 9.6, "unit": "mg/L"}, {"measurement": "fraction unbound", "value": 0.05}, {"measurement": "fraction unbound", "setting": "S5a, serum of patient 1 (critically ill) spiked 50 mg/L, measured c 53.5 mg/L, calibration with sheep serum", "value": 0.03}, {"measurement": "fraction unbound", "setting": "S5a, serum of patient 1 (critically ill) spiked 200 mg/L, measured c 201 mg/L, calibration with sheep serum", "value": 0.04}, {"measurement": "fraction unbound", "setting": "S5a, serum of patient 2 (critically ill) spiked 50 mg/L, measured c 53.6 mg/L, calibration with sheep serum", "value": 0.03}, {"measurement": "fraction unbound", "setting": "S5a, serum of patient 3 (critically ill) spiked 200 mg/L, measured c 209 mg/L, calibration with sheep serum", "value": 0.04}, {"measurement": "fraction unbound", "setting": "S5a, serum of patient 4 (critically ill) spiked 50 mg/L, measured c 54.2 mg/L, calibration with sheep serum", "value": 0.03}, {"measurement": "fraction unbound", "setting": "S5a, serum of patient 4 (critically ill) spiked 200 mg/L, measured c 212 mg/L, calibration with sheep serum", "value": 0.04}, {"measurement": "fraction unbound", "setting": "S5a, serum of patient 5 (critically ill) spiked 50 mg/L, measured c 53.0 mg/L, calibration with sheep serum", "value": 0.04}, {"measurement": "fraction unbound", "setting": "S5a, serum of patient 6 (critically ill) spiked 50 mg/L, measured c 50.4 mg/L, calibration with sheep serum", "value": 0.03}, {"measurement": "fraction unbound", "setting": "S5a, serum of patient 8 (critically ill) spiked 50 mg/L, measured c 54.3 mg/L, calibration with sheep serum", "value": 0.03}, {"measurement": "fraction unbound", "setting": "S5a, serum of patient 8 (critically ill) spiked 200 mg/L, measured c 201 mg/L, calibration with sheep serum", "value": 0.04}, {"measurement": "fraction unbound", "setting": "S5a, serum of patient 9 (non-critically ill) spiked 200 mg/L, measured c 177 mg/L, calibration with sheep serum", "value": 0.02}, {"measurement": "fraction unbound", "setting": "S5a, serum of patient 10 (non-critically ill) spiked 200 mg/L, measured c 180 mg/L, calibration with sheep serum", "value": 0.02}, {"measurement": "fraction unbound", "setting": "S5a, serum of patient 11 (non-critically ill) spiked 200 mg/L, measured c 177 mg/L, calibration with sheep serum", "value": 0.02}, {"measurement": "fraction unbound", "setting": "S5a, serum of patient 12 (non-critically ill) spiked 200 mg/L, measured c 195 mg/L, calibration with sheep serum", "value": 0.02}, {"measurement": "fraction unbound", "setting": "S5a, serum of patient 13 (non-critically ill) spiked 50 mg/L, measured c 53.0 mg/L, calibration with sheep serum", "value": 0.02}, {"measurement": "fraction unbound", "setting": "S5a, serum of patient 13 (non-critically ill) spiked 200 mg/L, measured c 214 mg/L, calibration with sheep serum", "value": 0.03}, {"measurement": "fraction unbound", "setting": "S5a, serum of patient 14 (non-critically ill) spiked 50 mg/L, measured c 50.0 mg/L, calibration with sheep serum", "value": 0.02}, {"measurement": "fraction unbound", "setting": "S5a, serum of patient 14 (non-critically ill) spiked 200 mg/L, measured c 208 mg/L, calibration with sheep serum", "value": 0.02}, {"measurement": "fraction unbound", "setting": "S5b, serum of 24 (healthy volunteer) spiked 50 mg/L, measured c 46.1 mg/L, calibration with human serum", "value": 0.03}, {"measurement": "fraction unbound", "setting": "S5b, serum of 24 (healthy volunteer) spiked 200 mg/L, measured c 184 mg/L, calibration with human serum", "value": 0.02}, {"measurement": "fraction unbound", "setting": "S5b, serum of 25 (healthy volunteer) spiked 50 mg/L, measured c 45.8 mg/L, calibration with human serum", "value": 0.03}, {"measurement": "fraction unbound", "setting": "S5b, serum of 25 (healthy volunteer) spiked 200 mg/L, measured c 197 mg/L, calibration with human serum", "value": 0.03}, {"measurement": "fraction unbound", "setting": "S5b, serum of 26 (healthy volunteer) spiked 50 mg/L, measured c 52.6 mg/L, calibration with human serum", "value": 0.03}, {"measurement": "fraction unbound", "setting": "S5b, serum of patient 15 (critically ill) spiked 50 mg/L, measured c 56.7 mg/L, calibration with human serum", "value": 0.03}, {"measurement": "fraction unbound", "setting": "[5]", "value": 0.04}, {"measurement": "fraction unbound", "setting": "[6]", "value": 0.04}, {"measurement": "fraction unbound", "setting": "[7]", "value": 0.03}, {"measurement": "fraction unbound", "setting": "[8]", "value": 0.04}, {"measurement": "fraction unbound", "setting": "[9]", "value": 0.02}, {"measurement": "fraction unbound", "setting": "[10]", "value": 0.04}, {"measurement": "fraction unbound", "setting": "[11]", "value": 0.03}, {"measurement": "fraction unbound", "setting": "[12]", "value": 0.04}, {"measurement": "fraction unbound", "setting": "[13]", "value": 0.03}, {"measurement": "fraction unbound", "setting": "[14]", "value": 0.04}]}
